Measurements: PubChem BioAssay (NCI)
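Each compound was tested at five concentrations against cells in 96-well plates for 48 hours. TGI denotes the concentration required for complete inhibition of growth.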

Columns and labels:
Experiment in all cases: growth of human tumour cells (NCI), 48 h
A498 renal = tested on: A498 renal
HOP-62 NSCLC = tested on: HOP-62 NSCLC
LXFL 529 NSCLC = tested on: LXFL 529 NSCLC
MOLT-4 leukemia = tested on: MOLT-4 leukemia
SK-MEL-2 melanoma = tested on: SK-MEL-2 melanoma
SN12C renal = tested on: SN12C renal
TK-10 renal = tested on: TK-10 renal
XF 498 CNS = tested on: XF 498 CNS
HCT-15 colon = tested on: HCT-15 colon

SMILES	TGI (A498 renal) [µM]	TGI (HOP-62 NSCLC) [µM]	TGI (LXFL 529 NSCLC) [µM]	TGI (MOLT-4 leukemia) [µM]	TGI (SK-MEL-2 melanoma) [µM]	TGI (SN12C renal) [µM]	TGI (TK-10 renal) [µM]	TGI (XF 498 CNS) [µM]	TGI (HCT-15 colon) [µM]
CC12CCCC(C#N)(C1)OC2=O (stereo not given)	> 100	> 100	> 100	> 100	> 100	> 100	> 100	> 100	
O=C(O)CCC(=O)Oc1ccc(O)c2c1CCCC2=O	> 100	> 100	> 100	> 100	> 100	> 100	> 100	5.84	> 100
N#CC(C(=O)CCC(=O)Nc1ccc(Cl)cc1)c1ccc(Cl)cc1 (stereo not given)	> 100	> 100	> 100	> 100	> 100	> 100	> 100	> 100	> 100
Cc1cc(Cl)ccc1NC(=O)CC1SC(=NC(=O)c2ccccc2Cl)NC1=O (stereo not given)	> 100		32.3	6.65	71.1	33.5		32.7	33.1
O=C(CN(Cc1ccccc1)Cc1ccccc1)N1CCc2c([nH]c3ccccc23)C1c1cccnc1 (stereo not given)	61.5	> 100	> 100	6.88		8.64	> 100	65.8	> 100
CCOC(=O)NC(=O)c1cn(CCCCCCCCCCC(=O)NCCCN2CCN(CCCNC(=O)CCCCCCCCCCn3cc(C(=O)NC(=O)OCC)c(=O)[nH]c3=O)CC2)c(=O)[nH]c1=O	> 100	> 10	> 100	> 100	> 100	> 100	> 100	> 100	> 100
Cc1ccc2nc(Sc3c([N+](=O)[O-])ncn3C)[nH]c2c1	83.2	> 100		31.1		35.8	> 100	18.9	32.4
CC(=O)n1nnc2ccc([N+](=O)[O-])cc21		> 100	> 100	> 100	> 100	> 100	> 100	> 100	
COC(=O)C(=O)C(C#N)c1cccc(Cl)c1 (stereo not given)	> 100	> 100	> 100	> 100	> 100	> 100	> 100	> 100	> 100
Cn1nc(-c2ccccc2)c2c(/C=C/c3ccc(Cl)cc3)onc2c1=O			> 100	> 100		> 100	> 100	43.6	> 100
N#CCCN(C1=NN(C(=O)CC(=O)Nc2ccc(Cl)cc2)C(c2ccccc2)C1)c1ccc(Cl)cc1 (stereo not given)	> 100	> 100	> 100	> 100	> 100	> 100	> 100	> 100	> 100
Cn1cnc([N+](=O)[O-])c1Sc1nc2ccccc2o1	45.2	> 94.4	12.9	8.99	52.9	18.5	22.9	19.7	11.2
O=CC1CCC=CC1NC(=O)OCc1ccccc1 (stereo not given)		> 100	> 100	> 100	> 100	> 100	> 100	> 100	> 100
O=C(Nc1ccccc1)n1cc(-c2ccccn2)c(N2CCOCC2)n1	51.1	> 100	> 100	> 100		> 100	> 100	> 100	> 100
CCC(C)C(=O)O[C@H]1C(=O)O[C@@H]2C[C@H]3C(C)=CC(=O)[C@@H](O)[C@]3(C)[C@H]3[C@@H](O)[C@H](O)[C@@]4(C)OC[C@]32[C@@H]14 (stereo not given in full)	< 0.01		0.123	0.267	< 0.0507	< 0.0135	< 0.0389	0.0819	0.071
O=C[C@]12CC=C3OC4OC5(CCCCC5)OC4[C@H]3[C@H]1C(=O)C=CC2=O (stereo not given in full)	> 100	> 100	39.8	15.3	> 100	> 100	81.3	27.8	43.4
